# Patent US20060199211A1, “Fluorous-based microarrays” (priority 2005, published 2006)
# Columns and labels:
# [1] = system: lectin from Triticum vulgaris (wheat germ, FITC-WGA); test: Fluorous carbohydrate microarray screened with FITC-labeled wheat germ lectin (fluorescence scan at 488 nm); format: binding; details: carbohydrates 4-11 spotted (2 mM in 80% methanol/water) on fluorinated glass slide; FITC-WGA in PBS buffer (0.25 M), 30 min; WGA bound only to this one
# Protocol: (§1) With the fluorous-tagged carbohydrates in hand, the ability of the single C8F17 tail to anchor these mono- and disaccharides to a glass slide surface even after repeated washes was examined. The fluorous-tagged carbohydrates 4-11 were dissolved in 80% methanol/water and were spotted onto fluoroalkylsilane-derivatized glass slides employing a standard robot used for DNA arraying. The slides then were incubated for 30 minutes with the commercially available FITC (fluorescein isothiocyanate)-labeled lectins from Triticum vulgaris (wheat germ, FITC-WGA) in phosphate buffered saline (PBS buffer) (0.25 M) and Arachis hypogaea (peanut, FITC-PNA) in PBS buffer (0.5 M) and rinsed repeatedly with the assay buffer followed by distilled water. After drying, the slide was scanned with a standard fluorescent slide scanner at 488 nm to reveal the carbohydrate-binding specificities of these two lectins. As expected the wheat germ lectin WGA bound only to the fluorous-tagged N-acetylglucosamine (5). In contrast, the peanut lectin PNA bound to both galactose (7) and lactose (10) in the array experiment. This lectin is known to bind to galactose both alone and in the context of the lactose disaccharide. […]
# [2] = biological target: T1, lectin from Arachis hypogaea (peanut, FITC-PNA) (Arachis hypogaea, UniProt P02872); test: Fluorous carbohydrate microarray screened with FITC-labeled peanut lectin (fluorescence scan at 488 nm); format: binding; details: carbohydrates 4-11 spotted (2 mM in 80% methanol/water) on fluorinated glass slide; FITC-PNA in PBS buffer (0.5 M), 30 min
# T1 construct: purchased EY Laboratories, San Mateo, Calif
# T1 sequence (P02872 24-273): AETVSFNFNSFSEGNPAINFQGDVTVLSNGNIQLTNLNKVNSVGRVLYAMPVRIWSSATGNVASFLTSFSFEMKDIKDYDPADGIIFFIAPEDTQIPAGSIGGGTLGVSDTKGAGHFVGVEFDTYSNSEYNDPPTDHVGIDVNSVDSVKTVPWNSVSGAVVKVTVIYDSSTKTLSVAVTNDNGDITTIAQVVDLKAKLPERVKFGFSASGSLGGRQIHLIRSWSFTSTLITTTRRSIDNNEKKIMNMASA
# Protocol: as §1
binding of wheat germ lectin WGA to arrayed fluorous-tagged carbohydrate [1],SMILES,binding of peanut lectin PNA to arrayed fluorous-tagged carbohydrate [2]
bound,"CC(=O)N[C@H]1[C@H](OCCCCOCCCC(F)(F)C(F)(F)C(F)(F)C(F)(F)C(F)(F)C(F)(F)C(F)(F)C(F)(F)F)O[C@H](CO)[C@@H](O)[C@@H]1O [Compound 5, 3-(perfluorooctyl)propanyloxybutanyl-2-deoxy-2-acylamino-β-D-glucopyranoside]",–
–,OC[C@H]1O[C@@H](OCCCCOCCCC(F)(F)C(F)(F)C(F)(F)C(F)(F)C(F)(F)C(F)(F)C(F)(F)C(F)(F)F)[C@H](O)[C@@H](O)[C@H]1O [Compound 7],bound
–,OC[C@H]1O[C@@H](O[C@H]2[C@H](O)[C@@H](O)[C@H](OCCCCOCCCC(F)(F)C(F)(F)C(F)(F)C(F)(F)C(F)(F)C(F)(F)C(F)(F)C(F)(F)F)O[C@@H]2CO)[C@H](O)[C@@H](O)[C@H]1O [Compound 10],bound
